Assay results published in paper PMC9599717, “The Multicellular Effects of VDAC1 N-Terminal-Derived Peptide” (Biomolecules, 2022).

What was measured:
[1] = system: MEC-1 (human B-cell chronic lymphocytic leukemia); experiment: Cell death by PI staining and flow cytometry (FACS), MEC-1; assay type: cell-based; settings: MEC-1 cells, 1.5 h
Protocol: MEC-1 cells were incubated in a serum-free medium with various concentrations of VDAC1-based peptides for 1.5 h at room temperature (RT), collected by centrifugation, washed with phosphate-buffered saline (PBS), and analyzed for cell death. Adherent cancer cells were seeded in culture plates and allowed to adhere overnight in a sterile cell culture incubation chamber maintained at 37 °C and 5% CO2. The next day, media was removed from the plates, and cells were treated with various concentrations of VDAC1-based peptides for the indicated time in serum-free Dulbecco’s Modified Eagle Medium (DMEM) with and without DMSO (final 0.15%) as a control for 6 h at 37 °C and 5% CO2. Cells were trypsinized, centrifuged (1500× g, 5 min), and washed with PBS.
Cell death was analyzed by the propidium iodide (PI) staining, followed by flow cytometry with the iCyt sy3200 Benchtop Cell Sorter/Analyzer and analysis with EC800 v 1.3.7 software (Sony Biotechnology Inc., San Jose, CA, USA). Apoptosis was analyzed by PI and annexin V-FITC staining, which was carried out according to the manufacturer’s instructions with minor modifications. […] Next, cells were washed and PI (6.25 μg/mL), was added immediately before flow cytometry At least 10,000 events were collected, recorded on a dot plot, and analyzed by flow cytometry. […]

[2] = target: VDAC1; experiment: Microscale thermophoresis (MST) binding to fluorescently labeled purified VDAC1; settings: fluorescently labeled purified VDAC1 (138 nM); actin 10–500 nM, tubulin 20–2000 nM; 10 mM Tricine pH 7.4, 100 mM NaCl; read-out: Kd of interaction with VDAC1 (MST)
Protocol: Purified VDAC1 was fluorescently labeled using the NanoTemper Protein-Labeling Blue Kit. Fluorescently labeled VDAC1 was incubated with different concentrations of actin, tubulin, or peptides in 10 mM Tricine buffer (pH 7.4) containing 100 mM NaCl. After a 20-min incubation, 8–10 μL aliquots were loaded into microscale thermophoresis (MST) grade glass capillaries (NanoTemper Technologies, Munich, Germany), and thermophoresis was measured with the NanoTemper Monolith-NT115 system (20/40% light-emitting diode, 40% infrared laser power).
Figure 5 D-Δ(1-18)N-Ter-Antp altered actin filament organization (A,B) U-87MG cells were cultured and incubated for 24 h with D-Δ(1-18)N-Ter-Antp (10 µM). Cells were stained for actin using Phalloidin-488 and visualized by confocal microscopy (A) and quantified for Phalloidin-488 staining intensity (B). The results were from triplicates of different biological repeats and are presented as the means ± SEM. * p ≤ 0.05; ** p ≤ 0.01. (C) Maximum intensity projection of super-resolution (SIM) microscopy image. […] (D) Actin interaction with VDAC1 analyzed using the MST method. […] (E) In vitro G-actin polymerization was monitored, as described in the Method section. […]
Figure 6 D-Δ(1-18)N-Ter-Antp altered tubulin filament organization. […] Quantification of tubulin staining intensity (B). […] (D) Tubulin (20–2000 nM) interaction with VDAC1 analyzed using the MST method.

Row | Substance | Maximal cell death (at the concentration for maximal cell death) [1] [%] | Kd [2] [nM]
1 | 11-GKSARDVFTKGYGFGL-26- RRMKWKK [Δ(1-10)N-Ter-min-Antp, VDAC1 N-terminal residues 11-26 fused to minimal Antp] | 20 | –
2 | actin | – | 30
